Test results from patent US5086054A, “Novel arylcycloalkanepolyalkylamines” (SRI International, priority 1990, dated 1992).
Where “and” joins values, the source holds several entries; their conditions need not be identical. Equal entries are not always repeated. Entries after “also recorded” stand apart in the source; their conditions may differ. Structures can show the parent of a compound that is named as a salt. Where two headings read alike, the source gives them in different places.

How the values were obtained:
α1 -ADRENOCEPTOR = assay: α1-adrenoceptor binding ([3H]-prazosin); parameters: species or system guinea-pig; settings: Table 4; IC50 and nM only stated in text; read-out: α1 -ADRENOCEPTOR
Description: (§1) This example illustrates the testing of compounds of this invention in dopamine D2, 5-HT2, muscarinic acetylcholine, α1 -adrenoceptor and β-adrenoceptor receptor assays. The receptor assay methods are described in Eur. J. Pharmacol., 155:345 (1988) except that in the β-adrenoceptor assay, [^125 I]-pindolol was used instead of [^3 H] dihydroalprenolol.
(§2) In this study, guinea-pig brains were used for binding studies. Homogenization and centrifugation procedures for preparation of brain membranes for each receptor assay were the same as described in Example 4 for the σ and PCP receptors. However, brain regions, tissue contents, and buffers may differ depending on the assay. Conditions of binding assays for various receptors were as follows:
For α1 -adrenoceptor assay, [^3 H]-prazosin (0.4 nM) was incubated in a 1 ml assay (50 mM Tris-HCl, pH 7.4) for 1 hour at 23° C. with membranes from 1 mg of whole brain minus cerebellum.
(§3) Filtration and washing conditions were the same as described above for the σ receptor assay. Nonspecific binding for each receptor was defined by the inclusion of 1 μM haloperidol for dopamine D2, 1 μM haloperidol for 5-HT2, 10 μM scopolamine for muscarinic acetylcholine, 10 μM prazosin for α1 -adrenoceptor, and 0.2 μM 1-propranolol for β-adrenoceptor. Retained radioactivity was measured by liquid scintillation spectrometry except for ^125 I-pindolol which was measured by the LKB gamma counter.
(§4) Programs in Biomed. 17:107 (1983)].

SIGMA RECEPTOR = target: T1, SIGMA RECEPTOR (Cavia porcellus, UniProt Q60492); assay: Sigma receptor binding assay ([3H]-d-SKF-10,047 displacement, brain membranes); parameters: species or system guinea-pig (male Hartley)
T1 construct: Two milliter aliquots of the brain membrane preparation, containing 1.7 mg of protein; tissue Pel-Freeze (Rogers, Arkansas); host or cells: guinea-pig brains plus cerebella, membranes
Experimental: (§5) This example illustrates testing of compounds in receptor binding assays.
(§6) Frozen brains from male Hartley guinea-pigs were obtained from Pel-Freeze (Rogers, Arkansas).
(§7) The brains plus cerebella were homogenized in 10 volumes (v/w) of 0.1M, pH 7.4, ice-cold Tris-HCl buffer with a Brinkmann polytron at setting 4 for 20 seconds. The homogenates were centrifuged at 20,000×g for 20 minutes at 4° C. The pellets were suspended in 10 volumes of ice-cold water and, after sitting on ice for 10 minutes, were centrifuged 30 minutes at 20,000×g at 4° C. The resulting pellets were resuspended in the above Tris buffer in ratio 1:100 (w/v) for σ receptor assays or in 5 mM Tris-HCl having pH 7.4, for PCP receptor assays. The final suspension was homogenized with a dounce glass-glass tissue grinder Wheaton "200", at small clearance (B), with three strokes before use. Two milliter aliquots of the brain membrane preparation, containing 1.7 mg of protein, were incubated in quadruplicate for one hour at 23° C. with competing mixture of ligand and radioligand. For σ receptors, [^3 H]-d-SKF-10,047, 2 nM was used. For PCP receptors, [^3 H] TCP [^3 H]-1-[1-(2-thienyl)cyclohexyl]piperidine), 1 nM was used. The nonspecific bindings were defined by 0.1 mM d-SKF-10,047 and 0.1 mM phencyclidine respectively for σ and PCP receptors. After incubation, free ligand was separated from bound ligand by rapid filtration through Whatman GF/C filters. The filters had been soaked before use in isoamyl alcohol-saturated water to prevent nonspecific [^3 H]-d-SKF-10,047 binding to the filter. In the PCP receptor assay, the filter was soaked in 0.5% polyethylenimine to reduce the filter binding of [^3 H]-TCP. After filtration, the trapped tissue was washed three times with 4 ml aliquots of 0.1 M ice-cold Tris buffer at pH 7.4 for σ receptors and 5 mM, ice-cold Tris buffer pH 7.4 for PCP receptors. The filters were transferred to 5 ml of liquid scintillation fluid and the retained radioactivity was measured by liquid scintillation spectrometry.

DOPAMINE D2 = target: T2, DOPAMINE D2 (Cavia porcellus, UniProt H0VE83); assay: Dopamine D2 receptor binding ([3H]-spiroperidol); parameters: species or system guinea-pig
T2 construct: printed as cerebral cortical tissue, [3H]spiroperidol, haloperidol blank
Description: as §1, §2
For dopamine D2 assay, 3 H-spiroperidol (0.15 nM) was incubated in a 2 ml assay (50 mM Tris-HCl, pH 7.4) for 2 hours at 23° C. with membranes from 12 mg of cerebral cortical tissue.
as §3, §4

5-HT2 = 5-HT2 (Cavia porcellus, UniProt A0A286Y537); assay: 5-HT2 receptor binding; parameters: species or system guinea-pig
Description: as §1, §2, §3, §4

PCP RECEPTOR = assay: PCP receptor binding assay ([3H]-TCP displacement, brain membranes); parameters: species or system guinea-pig (male Hartley)
Experimental: as §5, §6, §7, §4

MUSCARINIC ACETYLCHOLINE = format: binding, guinea-pig
Description: as §1, §2
For muscarinic acetylcholine assay, […]) [^3 H]-quinuclidinyl benzylate ([^3 H]-QNB) was incubated in a 2 ml assay (50 mM Tris-HCl, pH 7.4) for 2 hours at 23° C. with membranes from 2 mg of whole brain minus cerebellum.
as §3, §4

β-ADRENOCEPTOR = assay: β-adrenoceptor binding ([125I]-pindolol); parameters: species or system guinea-pig; settings: Table 4; IC50 and nM only stated in text; read-out: β-ADRENOCEPTOR
Description: as §1, §2
For β-adrenoceptor, [^125 I]-pindolol (0.05 nM) was incubated in a 1 ml assay (50 mM Tris-HCl, pH 7.4) for 1 hr at 23° C. with membranes from 1 mg of whole brain minus cerebellum.
as §3, §4

σ receptors = settings: literature; cited from earlier work
[1] = Table 2, aryl ring substituents, read-out: SIGMA RECEPTOR IC50
[2] = Table 2, aryl ring substituents, read-out: PCP RECEPTOR IC50

T1 sequence (Q60492 whole entry): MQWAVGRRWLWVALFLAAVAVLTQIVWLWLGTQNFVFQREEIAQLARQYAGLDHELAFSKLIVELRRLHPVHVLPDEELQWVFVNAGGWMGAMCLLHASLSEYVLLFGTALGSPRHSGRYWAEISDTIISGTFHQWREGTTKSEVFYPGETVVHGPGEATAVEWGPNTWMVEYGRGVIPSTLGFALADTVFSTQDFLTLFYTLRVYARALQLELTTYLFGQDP
5-HT2, sequence (A0A286Y537 1-470): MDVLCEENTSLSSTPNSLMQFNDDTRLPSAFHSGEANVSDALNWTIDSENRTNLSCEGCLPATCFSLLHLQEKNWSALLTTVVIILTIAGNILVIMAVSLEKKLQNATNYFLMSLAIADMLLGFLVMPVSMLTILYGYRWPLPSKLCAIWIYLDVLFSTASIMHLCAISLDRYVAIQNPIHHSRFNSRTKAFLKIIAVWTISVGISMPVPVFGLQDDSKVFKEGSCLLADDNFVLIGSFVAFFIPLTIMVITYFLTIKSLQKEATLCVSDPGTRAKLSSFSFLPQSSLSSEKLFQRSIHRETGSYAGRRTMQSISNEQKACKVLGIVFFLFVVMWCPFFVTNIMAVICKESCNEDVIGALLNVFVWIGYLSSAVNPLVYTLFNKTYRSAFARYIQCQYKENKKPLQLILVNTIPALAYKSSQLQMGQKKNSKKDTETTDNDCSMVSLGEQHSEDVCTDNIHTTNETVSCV
T2 sequence (H0VE83 entry or part of it): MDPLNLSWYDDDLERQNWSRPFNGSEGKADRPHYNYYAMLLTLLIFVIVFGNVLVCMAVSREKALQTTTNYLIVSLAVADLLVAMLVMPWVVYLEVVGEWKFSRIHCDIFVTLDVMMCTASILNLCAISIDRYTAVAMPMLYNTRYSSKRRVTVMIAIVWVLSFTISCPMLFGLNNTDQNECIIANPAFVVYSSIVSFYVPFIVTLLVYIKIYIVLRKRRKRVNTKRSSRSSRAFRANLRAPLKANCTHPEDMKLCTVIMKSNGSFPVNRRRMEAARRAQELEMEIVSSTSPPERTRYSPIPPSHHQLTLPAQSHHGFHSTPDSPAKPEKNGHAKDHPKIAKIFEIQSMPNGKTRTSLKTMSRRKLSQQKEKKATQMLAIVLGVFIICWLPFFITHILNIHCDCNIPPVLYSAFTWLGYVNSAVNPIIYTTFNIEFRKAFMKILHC

O=C(OCCN1CCCC1)C1(c2ccccc2)CCCCC1 [Compound 8, 2-(1-Pyrrolidino)ethyl 1-phenylcyclohexane-1-carboxylate hydrochloride]
IC50 (α1 -ADRENOCEPTOR): 23200 nM
SIGMA RECEPTOR SLOPE (SIGMA RECEPTOR; Table 1, slope of dose response curve): 0.50 ± 0.02
IC50 (SIGMA RECEPTOR; Table 4, IC50 and nM only stated in text, read-out: SIGMA): 5.1 ± 1.7 nM
potency at σ receptors (in words) (SIGMA RECEPTOR; hydrochloride): σ receptor potency increased; also recorded: very high
IC50 (SIGMA RECEPTOR; read-out: IC50 at σ receptors): 5 nM and < 100 nM
potency at dopamine D-2 receptors (in words) (DOPAMINE D2): moderate potencies at dopamine D-2 and 5-HT2 receptors
potency at 5-HT2 receptors (in words) (5-HT2): moderate potencies at dopamine D-2 and 5-HT2 receptors
IC50 (5-HT2; Table 4, IC50 and nM only stated in text, read-out: 5-HT2): 2930 nM
IC50 (PCP RECEPTOR; Table 1, mean ± error (n), read-out: PCP RECEPTOR IC50): 64700 nM
IC50 (PCP RECEPTOR; Table 4, IC50 and nM only stated in text, read-out: PCP): 64700 nM
potency at PCP receptors (in words) (PCP RECEPTOR; hydrochloride): inactive in the PCP assay; also recorded: negligible; also recorded: low potency at PCP receptors
IC50 (PCP RECEPTOR; read-out: IC50 / potency for PCP receptors): ~64000 nM
potency at muscarinic acetylcholine receptors (in words) (MUSCARINIC ACETYLCHOLINE): quite potent at muscarinic acetylcholine receptors
IC50 (MUSCARINIC ACETYLCHOLINE; Table 4, IC50 and nM only stated in text, read-out: MUSCARINIC ACETYLCHOLINE): 123 ± 16 nM
IC50 (MUSCARINIC ACETYLCHOLINE; read-out: potency (IC50) at muscarinic acetylcholine receptor): 23 nM
IC50 (β-ADRENOCEPTOR): 85000 nM

C=CCN1CCC2(C)c3cc(O)ccc3CC1C2C (stereo not shown) [N-allylnormetazocine]
affinity / binding at σ receptors (in words) (σ receptors): bind to σ receptors

CC(C)=CCN1CCC2(C)c3cc(O)ccc3CC1C2C (stereo not shown) [pentazocine, 2-dimethylallyl-5,9-dimethyl-2-hydroxy-benzomorphan]
affinity / binding at σ receptors (in words) (σ receptors): bind to σ receptors

CC1C2Cc3ccc(O)cc3C1(C)CCN2CC1CC1 (stereo not shown) [cyclazocine, 3-(cyclopropylmethyl)-1,2,3,4,5,6-hexahydro-6,11-dimethyl-2,6-methano-3-benzazocin-8-ol]
affinity / binding at σ receptors (in words) (σ receptors): bind to σ receptors

CCN(CC)CC1(c2ccc([N+](=O)[O-])cc2)CCCCC1 [Compound 39]
SIGMA RECEPTOR SLOPE (SIGMA RECEPTOR; Table 2): 0.44 ± 0.01
IC50 (SIGMA RECEPTOR; [1]): 304 nM
IC50 (PCP RECEPTOR; [2]): > 25000 nM

COc1ccc(C2(CN3CCCCC3)CCCCC2)cc1 [Compound 27]
potency at σ receptors (in words) (SIGMA RECEPTOR): slightly lower σ receptor potencies
selectivity for σ receptors (in words) (SIGMA RECEPTOR): substantially increases selectivity for σ receptors
SIGMA RECEPTOR SLOPE (SIGMA RECEPTOR; Table 2): 0.69 ± 0.04
IC50 (SIGMA RECEPTOR; [1]): 221 nM
IC50 (PCP RECEPTOR; [2]): > 25000 nM

COc1cccc(C2(CN3CCCC3)CCCCC2)c1 [Compound 33]
SIGMA RECEPTOR SLOPE (SIGMA RECEPTOR; Table 2): 0.73 ± 0.08
IC50 (SIGMA RECEPTOR; [1]): 1190 nM
IC50 (PCP RECEPTOR; [2]): 552 ± 20 nM

CCCN1CCC[C@H](c2cccc(O)c2)C1 [(+)-3-PPP, (+)-3-(3-hydroxyphenyl)-N-(1-propyl)piperidine]
affinity / binding at σ receptors (in words) (σ receptors): bind to σ receptors

c1ccc(C2(CN3CCCCC3)CC2)cc1 [Compound 45]
SIGMA RECEPTOR SLOPE (SIGMA RECEPTOR; Table 3): 0.83 ± 0.19
IC50 (SIGMA RECEPTOR; Table 3, cycloalkyl ring size, read-out: SIGMA RECEPTOR IC50): 5590 nM
IC50 (PCP RECEPTOR; Table 3, cycloalkyl ring size, read-out: PCP RECEPTOR IC50): 8840 nM
